Assays:
Experiment in all cases: radiolabelled solute uptake in cRNA-injected oocytes
Type in all cases: cell-based
Conditions in all cases: MBS buffer, 1 mM solute, 10 min, room temperature; labelled compound
DrAqp10a = biological target: T1, DrAqp10a (Danio rerio, UniProt A0A8M1N0C8)
T1 construct: gene aqp10a; full-length cDNA in pT7Ts, untagged, cRNA-injected Xenopus laevis oocytes
T1 sequence (A0A8M1N0C8 1-293): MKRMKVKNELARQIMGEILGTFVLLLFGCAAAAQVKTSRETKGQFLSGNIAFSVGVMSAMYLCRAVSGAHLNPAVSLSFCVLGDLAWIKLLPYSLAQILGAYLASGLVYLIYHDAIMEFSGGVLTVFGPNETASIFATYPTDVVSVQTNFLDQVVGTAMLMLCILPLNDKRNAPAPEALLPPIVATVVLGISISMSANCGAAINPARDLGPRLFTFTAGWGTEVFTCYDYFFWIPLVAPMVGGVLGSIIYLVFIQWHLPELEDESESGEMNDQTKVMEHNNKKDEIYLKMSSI

DrAqp7 = biological target: T2, DrAqp7 (Danio rerio, UniProt D3TZW4)
T2 construct: gene aqp7; full-length cDNA in pT7Ts, untagged, cRNA-injected Xenopus laevis oocytes
T2 sequence (D3TZW4 1-303): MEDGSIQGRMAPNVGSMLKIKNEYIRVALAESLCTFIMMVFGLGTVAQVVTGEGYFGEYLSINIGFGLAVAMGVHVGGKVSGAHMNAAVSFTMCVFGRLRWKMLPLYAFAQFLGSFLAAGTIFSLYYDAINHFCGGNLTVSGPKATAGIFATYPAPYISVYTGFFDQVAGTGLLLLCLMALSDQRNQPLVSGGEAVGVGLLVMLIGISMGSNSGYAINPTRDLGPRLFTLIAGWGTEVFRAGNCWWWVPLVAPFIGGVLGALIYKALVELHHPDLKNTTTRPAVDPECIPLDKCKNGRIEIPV

DrAqp10b = biological target: T3, DrAqp10b (Danio rerio, UniProt Q1L8T0)
T3 construct: gene aqp10b; full-length cDNA in pT7Ts, untagged, cRNA-injected Xenopus laevis oocytes
T3 sequence (Q1L8T0 1-276): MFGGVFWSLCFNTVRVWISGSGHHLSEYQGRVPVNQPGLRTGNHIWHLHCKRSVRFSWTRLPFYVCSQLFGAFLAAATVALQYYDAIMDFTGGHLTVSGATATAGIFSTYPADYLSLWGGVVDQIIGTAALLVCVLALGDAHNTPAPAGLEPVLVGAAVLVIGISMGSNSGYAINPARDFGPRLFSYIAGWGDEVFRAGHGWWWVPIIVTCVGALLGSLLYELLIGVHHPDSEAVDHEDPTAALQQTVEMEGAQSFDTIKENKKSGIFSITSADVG

DrAqp9a = biological target: T4, DrAqp9a (Danio rerio, UniProt Q498W2)
T4 construct: gene aqp9a; full-length cDNA in pT7Ts, untagged, cRNA-injected Xenopus laevis oocytes
T4 sequence (Q498W2 1-294): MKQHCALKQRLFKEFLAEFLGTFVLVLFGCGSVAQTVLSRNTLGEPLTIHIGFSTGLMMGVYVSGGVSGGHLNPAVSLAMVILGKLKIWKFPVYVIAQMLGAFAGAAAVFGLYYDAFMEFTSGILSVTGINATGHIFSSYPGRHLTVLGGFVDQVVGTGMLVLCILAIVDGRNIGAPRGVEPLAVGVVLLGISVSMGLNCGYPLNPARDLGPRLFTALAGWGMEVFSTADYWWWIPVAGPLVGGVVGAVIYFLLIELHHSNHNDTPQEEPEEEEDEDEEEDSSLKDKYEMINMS

DrAqp3a = biological target: T5, DrAqp3a (Danio rerio, UniProt Q803U6)
T5 construct: gene aqp3a; full-length cDNA in pT7Ts, untagged, cRNA-injected Xenopus laevis oocytes
T5 sequence (Q803U6 1-296): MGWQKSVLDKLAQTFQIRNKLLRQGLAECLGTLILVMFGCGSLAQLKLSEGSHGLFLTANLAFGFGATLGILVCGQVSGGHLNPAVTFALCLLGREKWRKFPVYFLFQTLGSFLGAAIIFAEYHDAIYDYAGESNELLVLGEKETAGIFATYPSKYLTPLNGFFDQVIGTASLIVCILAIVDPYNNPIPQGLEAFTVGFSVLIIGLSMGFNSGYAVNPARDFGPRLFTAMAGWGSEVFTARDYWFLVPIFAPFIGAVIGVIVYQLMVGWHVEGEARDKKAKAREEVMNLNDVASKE

DrAqp3b = biological target: T6, DrAqp3b (Danio rerio, UniProt D3TI80)
T6 construct: gene aqp3b; full-length cDNA in pT7Ts, untagged, cRNA-injected Xenopus laevis oocytes
T6 sequence (D3TI80 1-299): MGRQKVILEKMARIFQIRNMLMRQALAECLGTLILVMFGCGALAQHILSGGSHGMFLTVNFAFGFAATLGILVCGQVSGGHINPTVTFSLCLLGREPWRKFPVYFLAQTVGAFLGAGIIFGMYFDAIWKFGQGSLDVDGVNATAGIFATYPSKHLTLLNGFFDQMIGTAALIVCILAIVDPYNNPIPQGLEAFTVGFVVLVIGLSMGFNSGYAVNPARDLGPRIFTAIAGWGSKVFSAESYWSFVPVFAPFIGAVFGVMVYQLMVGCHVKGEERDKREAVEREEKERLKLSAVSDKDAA

DrAqp9b = biological target: T7, DrAqp9b (Danio rerio, UniProt D5FFZ1)
T7 construct: gene aqp9b; full-length cDNA in pT7Ts, untagged, cRNA-injected Xenopus laevis oocytes; FJ655387 is printed for both 9a and 9b
T7 sequence (D5FFZ1 1-291): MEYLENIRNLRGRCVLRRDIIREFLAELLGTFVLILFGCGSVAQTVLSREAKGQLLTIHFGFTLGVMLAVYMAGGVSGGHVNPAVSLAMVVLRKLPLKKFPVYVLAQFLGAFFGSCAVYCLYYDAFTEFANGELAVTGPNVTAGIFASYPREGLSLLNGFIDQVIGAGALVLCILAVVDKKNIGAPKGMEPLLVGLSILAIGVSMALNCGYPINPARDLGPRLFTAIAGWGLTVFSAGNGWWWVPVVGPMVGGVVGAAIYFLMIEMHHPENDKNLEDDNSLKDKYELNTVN

DrAqp8ab = biological target: T8, DrAqp8ab (Danio rerio, UniProt A0A8N1TQ94)
T8 construct: gene aqp8a.2; full-length cDNA in pT7Ts, untagged, cRNA-injected Xenopus laevis oocytes
T8 sequence (A0A8N1TQ94 1-257): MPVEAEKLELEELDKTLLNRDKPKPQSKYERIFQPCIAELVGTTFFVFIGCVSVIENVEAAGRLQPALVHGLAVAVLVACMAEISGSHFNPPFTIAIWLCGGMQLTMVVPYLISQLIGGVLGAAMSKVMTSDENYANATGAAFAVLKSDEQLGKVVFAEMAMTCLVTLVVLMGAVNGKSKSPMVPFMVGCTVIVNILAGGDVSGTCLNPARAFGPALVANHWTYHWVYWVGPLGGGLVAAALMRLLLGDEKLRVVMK

DrAqp8aa = biological target: T9, DrAqp8aa (Danio rerio, UniProt Q66I64)
T9 construct: gene aqp8a.1; full-length cDNA in pT7Ts, untagged, cRNA-injected Xenopus laevis oocytes
T9 sequence (Q66I64 1-260): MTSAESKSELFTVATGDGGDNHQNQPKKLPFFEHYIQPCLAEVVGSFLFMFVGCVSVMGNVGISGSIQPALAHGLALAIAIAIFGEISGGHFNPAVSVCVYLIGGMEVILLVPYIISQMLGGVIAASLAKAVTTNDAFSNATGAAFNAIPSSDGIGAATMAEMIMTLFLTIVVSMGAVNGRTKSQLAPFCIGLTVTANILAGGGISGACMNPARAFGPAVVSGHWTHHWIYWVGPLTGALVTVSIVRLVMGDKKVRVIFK

OCC(O)CO [glycerol] was tested, and the “radiolabelled solute uptake in cRNA-injected oocytes” value (“radiolabelled solute uptake” below) (DrAqp10a) was “draqp3a, -3b, -7, -9a, -9b, -10a and -10b were also permeable to glycerol and urea”, the “radiolabelled solute uptake” value (DrAqp7) was “draqp3a, -3b, -7, -9a, -9b, -10a and -10b were also permeable to glycerol and urea” and the “radiolabelled solute uptake” value (DrAqp10b) was “draqp3a, -3b, -7, -9a, -9b, -10a and -10b were also permeable to glycerol and urea”. For the same molecule, the “radiolabelled solute uptake” value (DrAqp9a) was “draqp3a, -3b, -7, -9a, -9b, -10a and -10b were also permeable to glycerol and urea”, the “radiolabelled solute uptake” value (DrAqp3a) was “draqp3a, -3b, -7, -9a, -9b, -10a and -10b were also permeable to glycerol and urea” and the “radiolabelled solute uptake” value (DrAqp3b) was “draqp3a, -3b, -7, -9a, -9b, -10a and -10b were also permeable to glycerol and urea”. The “radiolabelled solute uptake” value (DrAqp9b) was “draqp3a, -3b, -7, -9a, -9b, -10a and -10b were also permeable to glycerol and urea”.

For NC(N)=O [urea], the “radiolabelled solute uptake” value (DrAqp10a) was “draqp3a, -3b, -7, -9a, -9b, -10a and -10b were also permeable to glycerol and urea”, the “radiolabelled solute uptake” value (DrAqp7) was “draqp3a, -3b, -7, -9a, -9b, -10a and -10b were also permeable to glycerol and urea” and the “radiolabelled solute uptake” value (DrAqp10b) was “in the case of draqp10b urea permeability was low”. For the same molecule, the “radiolabelled solute uptake” value (DrAqp9a) was “draqp3a, -3b, -7, -9a, -9b, -10a and -10b were also permeable to glycerol and urea”, the “radiolabelled solute uptake” value (DrAqp8ab) was “Oocytes expressing draqp8aa or -8ab were permeable to water and urea, but not glycerol” and the “radiolabelled solute uptake” value (DrAqp3a) was “draqp3a, -3b, -7, -9a, -9b, -10a and -10b were also permeable to glycerol and urea”. The “radiolabelled solute uptake” value (DrAqp3b) was “draqp3a, -3b, -7, -9a, -9b, -10a and -10b were also permeable to glycerol and urea”, the “radiolabelled solute uptake” value (DrAqp9b) was “draqp3a, -3b, -7, -9a, -9b, -10a and -10b were also permeable to glycerol and urea” and the “radiolabelled solute uptake” value (DrAqp8aa) was “Oocytes expressing draqp8aa or -8ab were permeable to water and urea, but not glycerol”.

— paper PMC2829555, “The zebrafish genome encodes the largest vertebrate repertoire of functional aquaporins with dual paralogy and substrate specificities similar to mammals” (BMC Evolutionary Biology, 2010)
